Test results as given in patent publication US8609695B2, “Methods of treating and/or suppressing insulin resistance” (Endorecherche, Inc., priority 1999, dated 2013).
Marks after values point to notes of the source that are not given here.

What was measured:
[1] = system: ovariectomized rats; assay: 20-day treatment with EM-652.HCl, body fat, body weight and energy balance (Example 3); assay type: in vivo, rat; conditions: 20 days
Method: Eight to ten week-old female Sprague-Dawley rats (Crl:CD(SD)Br) (Charles River Laboratory, St-Constant, Canada) weighing approximately 200-225 g at the start of treatment were used. The animals were acclimatized to the environmental conditions (temperature: 22±3° C.; 10-h light-14-h dark cycles, lights on at 06:00 h) for 1 week before starting the experiment. The animals were housed individually in stainless steel cages of conventional design and were allowed free access to tap water and a high carbohydrate mixed diet composed of (g/100 g): Corn starch, 31.2; Dextrose, 31.2; Casein, 20.0; corn oil, 6.4; dl-Methionine, 0.3; Vitamine mix, 1.0; AIN-76 mineral mix, 4.9 and fiber, 5.0. The experiment was conducted in a Canadian Council on Animal Care approved facility in accordance with the CCAC Guide for Care and Use of Experimental Animals.
On day 1 of the study, the animals of the appropriate groups were bilaterally ovariectomized (OVX) under isoflurane anesthesia. […] The treatment with EM-652.HCl or vehicle alone (0.4% methylcellulose in water) was initiated on day 2 of the study. The compound or vehicle was given once daily by oral gavage in 0.5 ml/rat for 20 days. Body weights and food consumption were recorded every 2 days.
Approximately 24 hours after the last dosing, overnight fasted animals were anesthesized with ketamine-xylazine and blood drawn by cardiac puncture. The blood was collected as well as white and brown adipose tissues.
Body weight, food intake, and body gains in energy, fat, and protein were determined according to Deshaies et al, Am. J. Physiol., 1997; 273, E355-E362 (1997).
Lipoprotein lipase activities were determined according to Deshaies et al, Am. J. Physiol., 1997; 273, E355-E362 (1997).

[2] = system: ovariectomized female rats; assay: SERM comparison, energy balance and lipid-lipoprotein metabolism (Example 10); assay type: in vivo, Rattus norvegicus; conditions: OVX rats, 20 days
Method in brief: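 Ovariectomized rats on a high-carbohydrate diet dosed by oral gavage 0.5 mg/rat in 0.4% methylcellulose for 20 days; sham-operated group included. Body weight and food intake every 2 days, DEXA body fat on Day 17. Necropsy on day 21, ~24 h post-dose after 6 h fast: serum lipids, glucose, insulin, leptin, tissue weights.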

[3] = system: human breast cancer MCF-7 cells; assay: Proliferation of MCF-7 cell line, DNA content (Example 12); assay type: cell-based
Source text: MCF-7 human breast cancer cells were obtained from the American Type Culture Collection # HTB 22 at passage 147 and routinely grown in phenol red-free Dulbecco's Modified Eagle's-Ham's F12 medium, the supplements mentioned above and 5% FBS. The MCF-7 human breast adenocarcinoma cell line was derived from the pleural effusion of a patient. MCF-7 cells were used between passages 148 and 165 and subcultured weekly.
Cells in their late logarithmic growth phase were harvested with 0.1% pancreatin (Sigma) and resuspended in the appropriate medium containing 50 ng bovine insulin/ml and 5% (v/v) FBS treated twice with dextran-coated charcoal to remove endogenous steroids. Cells were plated in 24-well Falcon plastic culture plates (2 cm2/well) at the indicated density and allowed to adhere to the surface of the plates for 72 h. […] Control cells received only the ethanolic vehicle (0.1% EtOH,v/v). Cells were incubated for the specified time intervals with medium changes at 2- or 3-day intervals. Cell number was determined by measurement of DNA content.
Dose-response curves as well IC50 values were calculated using a weighted iterative nonlinear least-squares regression. All results are expressed as means±SEM.

[4] = system: aged Sprague-Dawley rats; conditions: reduced from 600, without affecting food intake; cited from earlier work
[5] = OVX rats, EM-652.HCl 0.5 mg/rat oral once daily, E2 implant
[6] = high carbohydrate diet, 0.5 mg/rat oral gavage

Structure (SMILES): CC1=C(c2ccc(O)cc2)[C@H](c2ccc(OCCN3CCCCC3)cc2)Oc2cc(O)ccc21.Cl [EM-652.HCl, (S)-(+)-7-hydroxy-3-(4′-hydroxyphenyl)-4-methyl-2-(4″-(2′″-piperidino-ethoxy)phenyl)-2H-1-benxopyran hydrochloride]
- Ovx-induced increase in energy intake [1]: completely prevented
- Ovx-induced insulin resistance (fasting hyperinsulinemia and hyperglycemia) ([1]; FIG. 5): prevented
- decrease in soleus muscle lipoprotein lipase by Ovx ([1]; FIG. 8): prevented
- soleus weight increase by Ovx ([1]; FIG. 8): prevented
- OVX increase in mass of inguinal and retroperitoneal adipose tissues ([1]; FIGS. 6A and 6C): completely abolished
- body weight gain after ovariectomy ([1]; OVX rats, FIG. 2A): completely reversed
- protein gain ([1]; OVX rats, FIG. 2B): less accentuated
- fat gain after ovariectomy ([1]; OVX rats, FIG. 2C): completely reversed
- Cumulative food intake ([1]; OVX rats, FIG. 3): lower than that of intact animals
- increase in body energy from proteins following ovariectomy ([1]; OVX rats, FIG. 4A): completely reversed
- increase in body energy from fat following ovariectomy ([1]; OVX rats, FIG. 4B): completely reversed
- interscapular brown adipose tissue weight, protein content and lipoprotein lipase activity ([1]; OVX rats, FIG. 7): completely reversed
- Digestible energy intake [1, 5]: 4479^b kJ
- Enegery gain [1, 5]: 278^b kJ
- Apparent energy (expenditure) ([1]; OVX rats, calculated from energy intake and energy gain): 4201^b kJ
- Food efficiency ([1]; OVX rats, kJ deposited per 100 kJ ingested): 5.9b %
- Serum insulin (in words) ([2]; 0.5 mg/rat): decreased
- Brown adipose tissue Lipoprotein lipase activity [2, 6]: 900 ± 91 μU/g protein
- Brown adipose tissue weight [2, 6]: 0.339 ± 0.038 g
- Cumulative food intake [2, 6]: 324 ± 5 g
- Serum glucose [2, 6]: 15.9 ± 1.4 mmol/L
- Serum insulin [2, 6]: 0.122 ± 0.021 nmol/L
- Serum leptin [2, 6]: 1.10 ± 0.22 ng/mL
- Serum triglycerides [2, 6]: 0.91 ± 0.17 mmol/L
- Soleus muscle Lipoprotein lipase activity [2, 6]: 14.5 ± 4.1 μU/g protein
- Soleus muscle weight [2, 6]: 0.118 ± 0.018 g
- Total weight [2, 6]: 252 ± 4 g
- VastusLateralis muscle weight [2, 6]: 1.00 ± 0.047 g
- White adipose tissue inguinal Lipoprotein lipase activity [2, 6]: 684 ± 216 μU/g protein
- White adipose tissue inguinal weight [2, 6]: 0.244 ± 0.028 g
- White adipose tissue retroperitoneal Lipoprotein lipase activity [2, 6]: 1917 ± 365 μU/g protein
- White adipose tissue retroperitoneal weight [2, 6]: 1.32 ± 0.21 g
- IC50 ([3]; Homo sapiens, MCF7, read-out: Inhibition of 1 nM E2 stimulation of DNA by tested compounds IC50): 0.796 nM
- EC50 ([3]; Homo sapiens, MCF7, MCF-7 cells, text summary of table 12, read-out: EC50 of inhibition (antiestrogen activity)): 0.8 nM
- Stimulation of DNA by tested compounds % of 1 nM E2 stimulation ([3]; MCF-7 cells, absence of E2): N.S.

Structure (SMILES): C[C@]12CC[C@H](O)CC1=CC[C@@H]1[C@@H]2CC[C@]2(C)C(=O)CC[C@@H]12 [DHEA, dehydroepiandrosterone]
- body weight [4]: 550 g
